From publication PMC3594701 (Journal of acquired immune deficiency syndromes (1999), 2011)
Marks after values point to notes of the source that are not given here.

How the values were obtained:
[1] = Steady-state plasma pharmacokinetics; type: in vivo, human; details: for Cmax: GM Cmax
[2] = Steady-state intracellular; type: in vivo, human; details: IC (PBMC); for GM AUC: AUC0–12; for Cmax: GM Cmax
[3] = 10 HIV-infected individuals, 6 also on twice-daily darunavir/ritonavir; cited from earlier work
HIV = details: 800 mg once daily versus approved 400 mg twice-daily dose; cited from earlier work
[4] = IC accumulation: ratio of IC drug to drug in plasma; details: human, GM IC to Plasma Ratio
[5] = group 1, period 2 (day 35): raltegravir 400 mg twice daily + darunavir/ritonavir 800/100 mg once daily
[6] = group 1, period 2 (day 35): raltegravir 400 mg twice daily + darunavir/ritonavir 800/100 mg once daily, listed as raltegravir
[7] = group 2, period 2 (day 35): raltegravir 800 mg once daily + darunavir/ritonavir 800/100 mg once daily

Cc1nnc(C(=O)NC(C)(C)c2nc(C(=O)NCc3ccc(F)cc3)c(O)c(=O)n2C)o1 [Raltegravir, raltegravir]
GM Ctrough [1, 5]: 20 ng/mL | GM Ctrough [1, 6]: 20 (17–25) ng/mL | GM Ctrough [1, 7]: 11 ^* ng/mL | Cmax ([1]; human, group 1, period 2 (day 35): raltegravir 400 mg twice daily + darunavir/ritonavir 800/100 mg once daily): 438 ng/mL | concentration at 12 h ([1]; human, GM Ctrough, group 1, period 1 (day 21): raltegravir 400 mg twice daily, without darunavir/ritonavir): 23 ng/mL | concentration at 12 h ([1]; human, GM Ctrough, group 2, period 1 (day 21): raltegravir 400 mg twice daily, without darunavir/ritonavir): 28 ng/mL | Cmax ([1]; human, oral, 400 mg, group 1, period 1 (day 21): raltegravir 400 mg twice daily, without darunavir/ritonavir): 533 ng/mL | Cmax ([1]; human, oral, 400 mg, group 2, period 1 (day 21): raltegravir 400 mg twice daily, without darunavir/ritonavir): 361 ng/mL | Cmax ([1]; human, oral, group 2, period 2 (day 35): raltegravir 800 mg once daily + darunavir/ritonavir 800/100 mg once daily): 556 ng/mL | concentration at 12 h ([1]; human, oral, GM Ctrough, group 1, period 1 (day 21): raltegravir 400 mg twice daily, without darunavir/ritonavir): 23 ng/mL | concentration at 12 h ([1]; human, oral, GM Ctrough, group 2, period 1 (day 21): raltegravir 400 mg twice daily, without darunavir/ritonavir): 28 ng/mL | concentration at 24 h ([1]; human, oral, GM Ctrough, group 2, period 2 (day 35): raltegravir 800 mg once daily + darunavir/ritonavir 800/100 mg once daily): 11 ng/mL | GM AUC ([2]; group 1, period 1 (day 21): raltegravir 400 mg twice daily, without darunavir/ritonavir): 9010 ng/h/mL | GM AUC ([2]; group 1, period 1 (day 21): raltegravir 400 mg twice daily, without darunavir/ritonavir, listed as raltegravir): 9010 (7852–13,519) ng·h^−1·mL^−1 | GM Ctrough [2, 5]: 105 ng/mL | GM Ctrough [2, 6]: 105 (51–295) ng/mL | GM AUC ([2]; group 2, period 1 (day 21): raltegravir 400 mg twice daily, without darunavir/ritonavir): 8780 ng/h/mL | GM AUC ([2]; group 2, period 1 (day 21): raltegravir 400 mg twice daily, without darunavir/ritonavir, listed as raltegravir): 8780 (7286–16,400) ng·h^−1·mL^−1 | GM Ctrough [2, 7]: 22 ng/mL | Cmax ([2]; human, PBMC (intracellular), oral, 400 mg, group 2, period 1 (day 21): raltegravir 400 mg twice daily, without darunavir/ritonavir): 1870 ng/mL | Cmax ([2]; human, PBMC, 400 mg, group 1, period 1 (day 21): raltegravir 400 mg twice daily, without darunavir/ritonavir): 2310 ng/mL | concentration at 12 h ([2]; human, PBMC, GM Ctrough, group 1, period 1 (day 21): raltegravir 400 mg twice daily, without darunavir/ritonavir): 101 ng/mL | concentration at 12 h ([2]; human, PBMC, GM Ctrough, group 2, period 1 (day 21): raltegravir 400 mg twice daily, without darunavir/ritonavir): 115 ng/mL | Cmax ([2]; human, PBMC, oral, 400 mg, group 1, period 1 (day 21): raltegravir 400 mg twice daily, without darunavir/ritonavir): 2310 ng/mL | Cmax ([2]; human, PBMC, oral, group 1, period 2 (day 35): raltegravir 400 mg twice daily + darunavir/ritonavir 800/100 mg once daily): 2170 ng/mL | Cmax ([2]; human, PBMC, oral, group 2, period 2 (day 35): raltegravir 800 mg once daily + darunavir/ritonavir 800/100 mg once daily): 2820 ng/mL | concentration at 12 h ([2]; human, PBMC, oral, GM Ctrough, group 1, period 1 (day 21): raltegravir 400 mg twice daily, without darunavir/ritonavir): 101 ng/mL | concentration at 12 h ([2]; human, PBMC, oral, GM Ctrough, group 2, period 1 (day 21): raltegravir 400 mg twice daily, without darunavir/ritonavir): 115 ng/mL | concentration at 24 h ([2]; human, PBMC, oral, GM Ctrough, group 2, period 2 (day 35): raltegravir 800 mg once daily + darunavir/ritonavir 800/100 mg once daily): 22 ng/mL | decrease of plasma AUC [3]: 33% | virological response (HIV): did not show the same virological response | Kp ([4]; PBMC (intracellular)/plasma, oral, 400 mg, AUC, group 1, period 1 (day 21): raltegravir 400 mg twice daily, without darunavir/ritonavir): 4.9 | Kp ([4]; PBMC (intracellular)/plasma, oral, 400 mg, AUC, group 2, period 1 (day 21): raltegravir 400 mg twice daily, without darunavir/ritonavir): 5.6 | Kp ([4]; PBMC (intracellular)/plasma, oral, 400 mg, Cmax, group 1, period 1 (day 21): raltegravir 400 mg twice daily, without darunavir/ritonavir): 4.6 | Kp ([4]; PBMC (intracellular)/plasma, oral, 400 mg, Cmax, group 2, period 1 (day 21): raltegravir 400 mg twice daily, without darunavir/ritonavir): 5.5 | Kp ([4]; PBMC (intracellular)/plasma, oral, 400 mg, Ctrough, group 1, period 1 (day 21): raltegravir 400 mg twice daily, without darunavir/ritonavir): 5.1 | Kp ([4]; PBMC (intracellular)/plasma, oral, 400 mg, Ctrough, group 2, period 1 (day 21): raltegravir 400 mg twice daily, without darunavir/ritonavir): 4.6 | Kp ([4]; intracellular (PBMC) / plasma, AUC (raltegravir), group 1, period 2 (day 35): raltegravir 400 mg twice daily + darunavir/ritonavir 800/100 mg once daily): 5.8 | Kp ([4]; intracellular (PBMC) / plasma, AUC (raltegravir), group 2, period 2 (day 35): raltegravir 800 mg once daily + darunavir/ritonavir 800/100 mg once daily): 6 | Kp ([4]; intracellular (PBMC) / plasma, oral, Cmax, group 1, period 2 (day 35): raltegravir 400 mg twice daily + darunavir/ritonavir 800/100 mg once daily): 5.6 | Kp ([4]; intracellular (PBMC) / plasma, oral, Cmax, group 2, period 2 (day 35): raltegravir 800 mg once daily + darunavir/ritonavir 800/100 mg once daily): 6.8 | Kp ([4]; intracellular (PBMC) / plasma, oral, Ctrough, group 1, period 2 (day 35): raltegravir 400 mg twice daily + darunavir/ritonavir 800/100 mg once daily): 4.5 | Kp at 24 h ([4]; intracellular (PBMC) / plasma, oral, Ctrough, group 2, period 2 (day 35): raltegravir 800 mg once daily + darunavir/ritonavir 800/100 mg once daily): 2.4
